Active and inactive are the calls of the source. The calls are words filed in the database; no cut-off is given here.
How the values were obtained:
[1] = tested on: 3T3-L1; assay: Upregulation of GLUT-4 mRNA expression in adipocyte differentiated mouse 3T3-L1 cells at 10 uM measured after 24 hrs; assay type: functional, cell-based
[2] = tested on: 3T3-L1; assay: Cytotoxicity against adipocyte differentiated mouse 3T3-L1 cells at 100 uM by MTT assay; assay type: toxicity, cell-based; conditions: 3t3-l1, 100 µM
[3] = Lipophilicity, logP of compound; assay type: physicochemical; conditions: octanol/water
[4] = tested on: Mus musculus; assay: Antidiabetic activity in nicotinamide and streptozotocin induced hyperglycemic mouse model assessed as reduction in triglyceride level at 100 mg/kg, IG administered as single dose and measured on day 5 (reference value: 93 +/- 10 mg/dl); assay type: functional
[5] = tested on: Mus musculus; assay: Antidiabetic activity in nicotinamide and streptozotocin induced hyperglycemic mouse model assessed as reduction in triglyceride level at 100 mg/kg, IG administered as single dose and measured on day 1 (reference value: 88 +/- 6 mg/dl); assay type: functional
[6] = tested on: 3T3-L1; assay: Upregulation of PPARalpha mRNA expression in adipocyte differentiated mouse 3T3-L1 cells assessed as fold increase in PPARalpha expression at 10 uM measured after 24 hrs; assay type: functional
[7] = biological target: T1, Peroxisome proliferator-activated receptor gamma (Homo sapiens) (UniProt P37231); assay: Binding affinity to PPARgamma (unknown origin) assessed as change in binding free energy; conditions: filed as modulator
T1 sequence (whole entry): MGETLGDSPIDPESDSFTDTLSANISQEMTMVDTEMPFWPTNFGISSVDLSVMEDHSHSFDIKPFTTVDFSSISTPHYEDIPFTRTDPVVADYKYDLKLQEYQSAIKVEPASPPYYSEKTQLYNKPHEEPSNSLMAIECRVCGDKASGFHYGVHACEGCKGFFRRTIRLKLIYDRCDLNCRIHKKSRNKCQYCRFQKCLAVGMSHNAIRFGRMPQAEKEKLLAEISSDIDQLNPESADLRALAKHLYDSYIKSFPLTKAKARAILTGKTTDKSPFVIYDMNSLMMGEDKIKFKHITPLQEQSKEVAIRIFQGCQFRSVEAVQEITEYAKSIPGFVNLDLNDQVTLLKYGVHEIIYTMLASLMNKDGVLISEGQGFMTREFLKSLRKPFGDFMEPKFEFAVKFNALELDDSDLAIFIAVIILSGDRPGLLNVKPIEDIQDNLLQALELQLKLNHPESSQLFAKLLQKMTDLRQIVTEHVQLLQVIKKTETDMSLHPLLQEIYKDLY

[8] = tested on: Mus musculus; assay: Antidiabetic activity in nicotinamide and streptozotocin induced hyperglycemic mouse model assessed as reduction in blood glucose at 100 mg/kg, IG administered as single dose and measured after 7 hrs; assay type: functional; design: scale not given: the % may be the effect or the level left
[9] = tested on: Mus musculus; assay: Antidiabetic activity in nicotinamide and streptozotocin induced hyperglycemic mouse model assessed as reduction in triglyceride level at 100 mg/kg, IG administered as single dose and measured on day 3 (reference value: 95 +/- 5 mg/dl); assay type: functional
[10] = tested on: Mus musculus; assay: Antidiabetic activity in nicotinamide and streptozotocin induced hyperglycemic mouse model assessed as reduction in triglyceride level at 100 mg/kg, IG administered as single dose and measured on day 0 (reference value: 92 +/- 10 mg/dl); assay type: functional
[11] = tested on: 3T3-L1; assay: Upregulation of PPARgamma mRNA expression in adipocyte differentiated mouse 3T3-L1 cells at 10 uM measured after 24 hrs; assay type: functional, cell-based
[12] = tested on: 3T3-L1; assay: Upregulation of PPARgamma mRNA expression in adipocyte differentiated mouse 3T3-L1 cells assessed as fold increase in PPARgamma expression at 10 uM measured after 24 hrs; assay type: functional

In the case of COc1cc(/C=C2\SC(=O)NC2=O)ccc1OCc1ccc(-c2ccccc2C#N)cc1, the Activity [1] is reported as “Active” and the Activity [2] is reported as “Non-Toxic”.
With O=C1NC(=O)/C(=C/c2ccc(OCc3ccccc3)cc2)S1 the Activity [2] was “Non-Toxic” and the logP [3] was 3.
For COc1cc(/C=C2\SC(=O)NC2=O)ccc1OCc1ccc(C)cc1, the Activity [2] was “Non-Toxic”.
For O=C1N=C(O)S/C1=C\c1ccc(OCc2ccccc2)cc1, the Activity [4] was 62 mg/dL, the Activity [5] was 70 mg/dL and the Activity [1] was “Active”. For the same molecule, the “fold change (FC)” value [6] was 2, the deltaG [7] was -7.43 and the Activity [8] was 38%. The Activity [9] was 69 mg/dL, the Activity [10] was 97 mg/dL and the Activity [11] was “Active”.
For N#Cc1ccccc1COc1ccc(/C=C2\SC(=O)NC2=O)cc1, the Activity [2] was “Non-Toxic” and the Activity [11] was “Active”.
For O=C1NC(=O)/C(=C/c2ccc(OCc3ccc(Cl)cc3)cc2)S1, the Activity [4] was 75 mg/dL, the Activity [5] was 75 mg/dL and the Activity [1] was “Active”. The “fold change (FC)” value [6] was 2, the deltaG [7] was -7.69 and the Activity [8] was -68%. The Activity [2] was “Non-Toxic”, the logP [3] was 3.53 and the Activity [9] was 77 mg/dL. The Activity [10] was 90 mg/dL and the “fold change (FC)” value [12] was 5.
Work on N#Cc1ccccc1-c1ccc(COc2ccc(/C=C3\SC(=O)NC3=O)cc2)cc1 yielded a deltaG [7] of -7.84 and a logP [3] of 4.94.
With COc1cc(/C=C2\SC(=O)NC2=O)ccc1OCc1ccc(Cl)cc1 the Activity [1] was “Active”, the Activity [2] was “Non-Toxic” and the Activity [11] was “Active”.
With COc1cc(/C=C2\SC(=O)NC2=O)ccc1OCc1ccccc1C#N the Activity [2] was “Non-Toxic”.
In the case of Cc1ccc(COc2ccc(/C=C3\SC(O)=NC3=O)cc2)cc1, the Activity [4] is reported as 70 mg/dL, the Activity [5] is reported as 88 mg/dL and the Activity [1] is reported as “Active”. For the same molecule, the “fold change (FC)” value [6] was 2, the deltaG [7] was -7.72 and the Activity [8] was 82%. The Activity [2] was “Non-Toxic”, the logP [3] was 3.33 and the Activity [9] was 74 mg/dL. The Activity [10] was 93 mg/dL and the “fold change (FC)” value [12] was 5.
In the case of CC(C)OC(=O)C(C)(C)Oc1ccc(C(=O)c2ccc(Cl)cc2)cc1 [FENOFIBRATE], the Activity [4] is reported as 58 mg/dL, the Activity [5] is reported as 65 mg/dL and the Activity [9] is reported as 62 mg/dL. It also gave an Activity [10] of 88 mg/dL.
For COc1cc(/C=C2\SC(=O)NC2=O)ccc1OCc1ccccc1, the Activity [1] was “Active” and the Activity [2] was “Non-Toxic”.

— ChEMBL document CHEMBL5126570, “Synthesis, in vitro, in silico and in vivo hypoglycemic and lipid-lowering effects of 4-benzyloxy-5-benzylidene-1,3-thiazolidine-2,4-diones mediated by dual PPAR α/γ modulation” (Bioorg Med Chem Lett, 2022)
